Measured values taken from patent publication US20090018134A1, “Compounds - 945” (AstraZeneca AB, priority 2007, published 2009).
Where two headings read alike, the source gives them in different places.

Biological target: T1, mTOR (Homo sapiens, UniProt P42345)
T1 construct: FLAG; made in house
Test: In Vitro mTOR Kinase Assay (Echo), Test (a)(ii)
Assay type: biochemical
Outline: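 Enzyme: HEK293-expressed, FLAG-purified mTOR C-terminal fragment (aa 1362-2549). Rxn 2 h RT with biotinylated peptide, stopped with EDTA 50 mM/BSA/Tris pH 7.4. Detection: T389 phospho-antibody AlphaScreen, 680 nm excitation. IC50.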

[1] = table of enzyme assay Test (a)(ii), read-out: Test (a)(ii) IC50
[2] = read-out: mTOR Kinase Assay (Echo)

T1 sequence (P42345 1362-2549): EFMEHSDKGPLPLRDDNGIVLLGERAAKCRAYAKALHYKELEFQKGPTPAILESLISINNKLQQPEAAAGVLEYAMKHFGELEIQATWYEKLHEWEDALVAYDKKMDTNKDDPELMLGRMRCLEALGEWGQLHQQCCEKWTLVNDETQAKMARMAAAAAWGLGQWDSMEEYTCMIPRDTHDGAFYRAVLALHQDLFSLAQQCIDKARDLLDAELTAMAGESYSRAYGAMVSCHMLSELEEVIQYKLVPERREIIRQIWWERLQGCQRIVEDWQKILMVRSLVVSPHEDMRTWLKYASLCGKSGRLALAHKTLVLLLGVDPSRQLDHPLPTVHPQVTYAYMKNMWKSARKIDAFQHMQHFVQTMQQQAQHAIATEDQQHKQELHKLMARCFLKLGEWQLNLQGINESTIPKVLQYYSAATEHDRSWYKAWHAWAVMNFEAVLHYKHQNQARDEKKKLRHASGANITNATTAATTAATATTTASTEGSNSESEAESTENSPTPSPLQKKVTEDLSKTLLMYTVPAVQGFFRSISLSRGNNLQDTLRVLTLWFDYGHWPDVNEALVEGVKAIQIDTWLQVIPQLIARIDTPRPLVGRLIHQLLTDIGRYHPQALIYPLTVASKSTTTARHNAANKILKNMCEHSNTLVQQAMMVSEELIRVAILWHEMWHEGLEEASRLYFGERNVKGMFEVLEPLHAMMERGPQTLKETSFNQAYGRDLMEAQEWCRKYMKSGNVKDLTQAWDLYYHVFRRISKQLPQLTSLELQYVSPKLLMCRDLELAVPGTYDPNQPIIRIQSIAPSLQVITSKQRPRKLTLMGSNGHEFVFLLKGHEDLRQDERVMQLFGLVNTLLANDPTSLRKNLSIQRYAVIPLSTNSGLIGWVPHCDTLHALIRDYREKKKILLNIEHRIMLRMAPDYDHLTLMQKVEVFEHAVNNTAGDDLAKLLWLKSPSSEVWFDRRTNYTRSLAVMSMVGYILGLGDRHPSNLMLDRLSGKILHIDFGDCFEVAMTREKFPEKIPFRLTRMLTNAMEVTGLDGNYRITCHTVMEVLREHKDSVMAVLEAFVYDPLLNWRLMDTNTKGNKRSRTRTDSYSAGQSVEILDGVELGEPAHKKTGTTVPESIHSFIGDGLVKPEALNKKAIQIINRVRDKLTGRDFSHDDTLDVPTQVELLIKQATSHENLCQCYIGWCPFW

Row | IC50 [1] [nM] | IC50 [2] [nM] | Compound
1 | 10.9 | – | CCNC(=O)Nc1ccc(-c2nc(N3CCOC[C@@H]3C)cc(C3(S(=O)(=O)c4ccc(F)c(Cl)c4)CC3)n2)cc1 [Example 95f, 3-[4-[4-[1-(3-chloro-4-fluorophenyl)sulfonyl-cyclopropyl]-6-[(3S)-3-methylmorpholin-4-yl]pyrimidin-2-yl]phenyl]-1-ethylurea]
2 | – | 1.67 | CS(=O)(=O)C1(c2cc(N3CCOCC3)nc(-c3ccc(NC(=O)NC4CC4)cc3)n2)CCCC1 [Example 12j, 3-cyclopropyl-1-[4-[4-(1-methylsulfonylcyclopentyl)-6-morpholin-4-ylpyrimidin-2-yl]phenyl]urea]
3 | 5.09 | – | C[C@H]1COCCN1c1cc(C2(S(=O)(=O)c3ccc(C(N)=O)cc3Cl)CC2)nc(-c2ccc(NC(=O)NCCF)cc2)n1 [Example 85c, 3-chloro-4-[1-[2-[4-(2-fluoroethylcarbamoylamino)phenyl]-6-[(3S)-3-methylmorpholin-4-yl]pyrimidin-4-yl]cyclopropyl]sulfonylbenzamide]
4 | 1.55 | – | Cc1csc(S(=O)(=O)C2(c3cc(N4CCOC[C@@H]4C)nc(-c4ccc(NC(=O)NC5CC5)cc4)n3)CC2)n1 [Example 25, 3-Cyclopropyl-1-[4-[4-[(3S)-3-methylmorpholin-4-yl]-6-[1-[(4-methyl-1,3-thiazol-2-yl)sulfonyl]cyclopropyl]pyrimidin-2-yl]phenyl]urea]
5 | – | 39.6 | C[C@H]1COCCN1c1cc(C2(S(=O)(=O)C3CC3)CC2)nc(-c2ccc(NC(=O)NCC(C)(C)CO)cc2)n1 [Example 3n, 1-[4-[4-(1-cyclopropylsulfonylcyclopropyl)-6-[(3S)-3-methylmorpholin-4-yl]pyrimidin-2-yl]phenyl]-3-(3-hydroxy-2,2-dimethylpropyl)urea]
6 | 4.3 | – | Cn1cc(NC(=O)Nc2ccc(-c3nc(N4CCOCC4)cc(C4(S(=O)(=O)c5ccccn5)CC4)n3)cc2)cn1 [Example 56d, 3-(1-methylpyrazol-4-yl)-1-[4-[4-morpholin-4-yl-6-(1-pyridin-2-ylsulfonylcyclopropyl)pyrimidin-2-yl]phenyl]urea]
7 | – | 11.6 | CCCNC(=O)Nc1ccc(-c2nc(N3CCOC[C@@H]3C)cc(C3(S(=O)(=O)C(C)C)CC3)n2)cc1 [Example 7h, 3-[4-[4-[(3S)-3-methylmorpholin-4-yl]-6-(1-propan-2-ylsulfonylcyclopropyl)pyrimidin-2-yl]phenyl]-1-propyl-urea]
8 | – | 3.21 | CC(C)NC(=O)Nc1ccc(-c2nc(N3CCOC[C@@H]3C)cc(C3(S(=O)(=O)c4ccncc4)CC3)n2)cc1 [Example 6c, 1-[4-[4-[(3S)-3-methylmorpholin-4-yl]-6-(1-pyridin-4-ylsulfonylcyclopropyl)pyrimidin-2-yl]phenyl]-3-propan-2-yl-urea]
9 | 9.09 | – | C[C@H]1COCCN1c1cc(C2(S(=O)(=O)c3ccccc3)CCCC2)nc(-c2ccc(NC(=O)NC3CC3)cc2)n1 [Example 36bw, 1-[4-[4-[1-(benzenesulfonyl)cyclopentyl]-6-[(3S)-3-methylmorpholin-4-yl]pyrimidin-2-yl]phenyl]-3-cyclopropylurea]
10 | 12.4 | – | C[C@H]1COCCN1c1cc(C2(S(=O)(=O)C3CC3)CC2)nc(-c2ccc(NC(=S)NC3CC3)cc2)n1 [Example 37b, 3-cyclopropyl-1-[4-[4-(1-cyclopropylsulfonylcyclopropyl)-6-[(3S)-3-methylmorpholin-4-yl]pyrimidin-2-yl]phenyl]thiourea]
11 | 57.7 | – | C[C@H](CO)NC(=O)Nc1ccc(-c2nc(N3CCOC[C@@H]3C)cc(C3(S(=O)(=O)CCCO)CCC3)n2)cc1 [Example 43r, 3-[(2R)-1-hydroxypropan-2-yl]-1-[4-[4-[1-(3-hydroxypropylsulfonyl)cyclobu-tyl]-6-[(3S)-3-methylmorpholin-4-yl]pyrimidin-2-yl]phenyl]urea]
12 | – | 2.71 | CCNC(=O)Nc1ccc(-c2nc(N3CCOCC3)cc(C3(S(C)(=O)=O)CC3)n2)cc1 [Example 12b, 3-ethyl-1-[4-[4-(1-methylsulfonylcyclopropyl)-6-morpholin-4-ylpyrimidin-2-yl]phenyl]urea]
13 | 8.66 | – | C[C@H]1COCCN1c1cc(C2(S(=O)(=O)C3CC3)CCC2)nc(-c2ccc(NC(=O)NCCCO)cc2)n1 [Example 64z, 1-[4-[4-(1-cyclopropylsulfonylcyclobutyl)-6-[(3S)-3-methylmorpholin-4-yl]pyrimidin-2-yl]phenyl]-3-(3-hydroxypropyl)urea]
14 | 88.7 | – | CCS(=O)(=O)C1(c2cc(N3CCOC[C@@H]3C)nc(-c3ccc(NC(=O)NCc4ncc[nH]4)cc3)n2)CCC1 [Example 87a, 1-[4-[4-(1-ethylsulfonylcyclobutyl)-6-[(3S)-3-methylmorpholin-4-yl]pyrimidin-2-yl]phenyl]-3-(1H-imidazol-2-ylmethyl)urea]
15 | – | 18.1 | CC(C)NC(=O)Nc1ccc(-c2nc(N3CCOC[C@@H]3C)cc(C3(S(=O)(=O)C(C)C)CC3)n2)cc1 [Example 7b, 1-[4-[4-[(3S)-3-methylmorpholin-4-yl]-6-(1-propan-2-ylsulfonylcyclopropyl)pyrimidin-2-yl]phenyl]-3-propan-2-yl-urea]
16 | – | 5.96 | C[C@H]1COCCN1c1cc(C2(S(=O)(=O)C3CC3)CC2)nc(-c2ccc(NC(=O)NCCC#N)cc2)n1 [Example 3o, 3-(2-cyanoethyl)-1-[4-[4-(1-cyclopropylsulfonylcyclopropyl)-6-[(3S)-3-methylmorpholin-4-yl]pyrimidin-2-yl]phenyl]urea]
17 | 3.17 | – | CNC(=O)Nc1ccc(-c2nc(N3CCOC[C@@H]3C)cc(C3(S(=O)(=O)C4CC4)CCC3)n2)cc1 [Example 36d, 1-[4-[4-(1-cyclopropylsulfonylcyclobutyl)-6-[(3S)-3-methylmorpholin-4-yl]pyrimidin-2-yl]phenyl]-3-methylurea]
18 | 1.53 | – | C[C@H]1COCCN1c1cc(C2(S(=O)(=O)c3ccccn3)CC2)nc(-c2ccc(NC(=O)Nc3ccc(C(F)(F)F)cc3)cc2)n1 [Example 28i, 1-[4-[4-[(3S)-3-methylmorpholin-4-yl]-6-(1-pyridin-2-ylsulfonylcyclopropyl)pyrimidin-2-yl]phenyl]-3-[4-(trifluoromethyl)phenyl]urea]
19 | – | 6.81 | CC(C)NC(=O)Nc1ccc(-c2nc(N3CCOC[C@@H]3C)cc(C3(S(C)(=O)=O)CCC3)n2)cc1 [Example 5c, 1-[4-[4-[(3S)-3-methylmorpholin-4-yl]-6-(1-methylsulfonylcyclobutyl)pyrimidin-2-yl]phenyl]-3-propan-2-yl-urea]
20 | – | 9.05 | C[C@H]1COCCN1c1cc(C2(S(C)(=O)=O)CCCC2)nc(-c2ccc(NC(=O)Nc3ccc(C(F)(F)F)cc3)cc2)n1 [Example 4k, 1-[4-[4-[(3S)-3-methylmorpholin-4-yl]-6-(1-methylsulfonylcyclopentyl)pyrimidin-2-yl]phenyl]-3-[4-(trifluoromethyl)phenyl]urea]
21 | 39.3 | – | CCCNC(=S)Nc1ccc(-c2nc(N3CCOC[C@@H]3C)cc(C3(S(C)(=O)=O)CC3)n2)cc1 [Example 37n, 1-[4-[4-[(3S)-3-methylmorpholin-4-yl]-6-(1-methylsulfonylcyclopropyl)pyri-midin-2-yl]phenyl]-3-propylthiourea]
22 | 18.3 | – | C[C@H]1COCCN1c1cc(C2(S(=O)(=O)c3cc(F)ccc3F)CC2)nc(-c2ccc(NC(=O)NCC(F)F)cc2)n1 [Example 60d, 3-(2,2-difluoroethyl)-1-[4-[4-[1-(2,5-difluorophenyl)sulfonylcyclopropyl]-6-[(3S)-3-methylmorpholin-4-yl]pyrimidin-2-yl]phenyl]urea]
23 | 133 | – | CN1CCN(C(=O)C2(c3cc(N4CCOCC4)nc(-c4ccc(NC(=O)NC5CC5)cc4)n3)CC2)CC1 [Example 33d, 3-cyclopropyl-1-[4-[4-[1-(4-methylpiperazine-1-carbonyl)cyclopropyl]-6-morpholin-4-ylpyrimidin-2-yl]phenyl]urea]
24 | 3.56 | – | C[C@H]1COC[C@H](C)N1c1cc(C2(S(C)(=O)=O)CC2)nc(-c2ccc(NC(=O)NCCO)cc2)n1 [Example 91d, 1-[4-[4-[(3S,5S)-3,5-dimethylmorpholin-4-yl]-6-(1-methylsulfonylcyclopropyl)pyrimidin-2-yl]phenyl]-3-(2-hydroxyethyl)urea]
25 | 3.76 | – | C[C@H]1COCCN1c1cc(C2(S(=O)(=O)c3ccccc3)CC2)nc(-c2ccc(NC(=O)NCC(O)C(F)(F)F)cc2)n1 (stereo partly drawn) [Example 36be, 1-[4-[4-[1-(benzenesulfonyl)cyclopropyl]-6-[(3S)-3-methylmorpholin-4-yl]pyrimidin-2-yl]phenyl]-3-(3,3,3-trifluoro-2-hydroxypropyl)urea]
26 | 18 | – | C[C@H]1COCCN1c1cc(C2(S(=O)(=O)C3CC3)CCCC2)nc(-c2ccc(NC(=O)NC3CC3)cc2)n1 [Example 36j, 3-cyclopropyl-1-[4-[4-(1-cyclopropylsulfonylcyclopentyl)-6-[(3S)-3-methylmorpholin-4-yl]pyrimidin-2-yl]phenyl]urea]
27 | 3.17 | – | Cc1ccccc1S(=O)(=O)C1(c2cc(N3CCOC[C@@H]3C)nc(-c3ccc(NC(=O)NCCO)cc3)n2)CC1 [Example 54b, 3-(2-hydroxyethyl)-1-[4-[4-[(3S)-3-methylmorpholin-4-yl]-6-[1-(2-methylphenyl)sulfonylcyclo-propyl]pyrimidin-2-yl]phenyl]urea]
28 | – | 4.22 | C[C@H]1COCCN1c1cc(C2(S(=O)(=O)C3CC3)CC2)nc(-c2ccc(NC(=O)Nc3ccc(C(F)(F)F)cc3)cc2)n1 [Example 3j, 1-[4-[4-(1-cyclopropylsulfonylcyclopropyl)-6-[(3S)-3-methylmorpholin-4-yl]pyrimidin-2-yl]phenyl]-3-[4-(trifluoromethyl)phenyl]urea]
29 | 1.2 | – | C[C@H]1COCCN1c1cc(C2(S(=O)(=O)C3CCCCC3)CC2)nc(-c2ccc(NC(=O)NCCO)cc2)n1 [Example 26d, 1-[4-[4-(1-cyclohexylsulfonylcyclopropyl)-6-[(3S)-3-methylmorpholin-4-yl]pyrimidin-2-yl]phenyl]-3-(2-hydroxyethyl)urea]
